Broadly, the IC50 is the point on the concentration scale where inhibition reaches its midpoint.

Several values for one entry are separate records, joined by “and”; a condition that tells them apart may be missing. Equal values may be shown once. Read-outs that look alike come from different tables or passages of the source.

The target of one assay is T1, human CFTR (Homo sapiens, UniProt P13569).
T1 construct: expressed in transfected cells; host or cells: Fisher rat thyroid (FRT) cells
In words: Apical membrane current of CFTR in FRT cells expressing human CFTR. Format: cell-based. Conditions: 20 μM. The source says:
[…]. (C) Summary of dose-response (mean ± S.E., n = 5). […]. (F) Summary of dose−response (mean ± S.E., n = 6).
Snapwell inserts containing ANO1(abc) or CFTR-expressing FRT cells were mounted in Ussing chambers (Physiological Instruments, San Diego, CA). The basolateral hemichamber was filled with buffer solution (in mM): 120 NaCl, 5 KCl, 1 MgCl2, 1 CaCl2, 10 D-glucose, 2.5 HEPES, and 25 NaHCO3 (pH 7.4). The apical hemichamber was filled with buffer solution (in mM): 60 NaCl, 60 Na-gluconate, 5 KCl, 1 MgCl2, 1 CaCl2, 10 D-glucose, 2.5 HEPES, and 25 NaHCO3 (pH 7.4). FRT cells were bathed for a 10 min stabilization period and gassed with 5% CO2 and 95% O2 at 37 °C. The apical membrane current was recorded with an EVC4000 Multi-Channel V/I Clamp (World Precision Instruments, Sarasota, FL, USA) and a PowerLab 4/35 (AD Instruments, Castle Hill, Australia).

Assay [1] deals with T2, VRAC (Homo sapiens, UniProt Q8IWT6).
T2 sequence (Q8IWT6 1-810): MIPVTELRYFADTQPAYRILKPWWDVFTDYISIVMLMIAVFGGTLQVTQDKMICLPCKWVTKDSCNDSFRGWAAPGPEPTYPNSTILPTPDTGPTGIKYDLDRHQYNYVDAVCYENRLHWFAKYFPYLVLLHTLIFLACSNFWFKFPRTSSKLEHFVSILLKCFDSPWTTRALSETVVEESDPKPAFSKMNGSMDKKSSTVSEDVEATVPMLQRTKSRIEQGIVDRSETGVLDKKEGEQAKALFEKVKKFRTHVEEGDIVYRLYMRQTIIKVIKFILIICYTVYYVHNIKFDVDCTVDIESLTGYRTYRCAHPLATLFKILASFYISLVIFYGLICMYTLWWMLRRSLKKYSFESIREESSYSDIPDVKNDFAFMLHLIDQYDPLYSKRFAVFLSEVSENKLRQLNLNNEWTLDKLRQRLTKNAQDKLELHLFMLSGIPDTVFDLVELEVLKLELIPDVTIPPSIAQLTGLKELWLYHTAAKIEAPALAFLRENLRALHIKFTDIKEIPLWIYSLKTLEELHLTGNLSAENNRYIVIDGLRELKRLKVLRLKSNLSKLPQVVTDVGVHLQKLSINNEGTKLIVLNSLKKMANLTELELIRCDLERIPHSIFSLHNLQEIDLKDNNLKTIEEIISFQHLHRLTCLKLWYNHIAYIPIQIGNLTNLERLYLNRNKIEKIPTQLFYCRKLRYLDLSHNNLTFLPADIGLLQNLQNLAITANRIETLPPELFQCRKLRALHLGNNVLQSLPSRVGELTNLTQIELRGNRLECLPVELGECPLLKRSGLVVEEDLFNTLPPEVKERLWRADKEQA
In words: cell-based. Conditions: VRAC IC50, YFP fluorescence quenching, LN215 cells, hypotonic solution 5 min, n = 4.

The target in another assay is T3, ANO1 (Homo sapiens, UniProt Q5XXA6, DEL476-501).
T3 construct: expressed in transfected cells; host or cells: Fisher rat thyroid (FRT) cells; The YFP assay uses FRT-ANO1-YFP cells, which also carry the halide sensor
T3 sequence (Q5XXA6 with tags, fused parts or gaps isoform Q5XXA6-5 DEL539-564): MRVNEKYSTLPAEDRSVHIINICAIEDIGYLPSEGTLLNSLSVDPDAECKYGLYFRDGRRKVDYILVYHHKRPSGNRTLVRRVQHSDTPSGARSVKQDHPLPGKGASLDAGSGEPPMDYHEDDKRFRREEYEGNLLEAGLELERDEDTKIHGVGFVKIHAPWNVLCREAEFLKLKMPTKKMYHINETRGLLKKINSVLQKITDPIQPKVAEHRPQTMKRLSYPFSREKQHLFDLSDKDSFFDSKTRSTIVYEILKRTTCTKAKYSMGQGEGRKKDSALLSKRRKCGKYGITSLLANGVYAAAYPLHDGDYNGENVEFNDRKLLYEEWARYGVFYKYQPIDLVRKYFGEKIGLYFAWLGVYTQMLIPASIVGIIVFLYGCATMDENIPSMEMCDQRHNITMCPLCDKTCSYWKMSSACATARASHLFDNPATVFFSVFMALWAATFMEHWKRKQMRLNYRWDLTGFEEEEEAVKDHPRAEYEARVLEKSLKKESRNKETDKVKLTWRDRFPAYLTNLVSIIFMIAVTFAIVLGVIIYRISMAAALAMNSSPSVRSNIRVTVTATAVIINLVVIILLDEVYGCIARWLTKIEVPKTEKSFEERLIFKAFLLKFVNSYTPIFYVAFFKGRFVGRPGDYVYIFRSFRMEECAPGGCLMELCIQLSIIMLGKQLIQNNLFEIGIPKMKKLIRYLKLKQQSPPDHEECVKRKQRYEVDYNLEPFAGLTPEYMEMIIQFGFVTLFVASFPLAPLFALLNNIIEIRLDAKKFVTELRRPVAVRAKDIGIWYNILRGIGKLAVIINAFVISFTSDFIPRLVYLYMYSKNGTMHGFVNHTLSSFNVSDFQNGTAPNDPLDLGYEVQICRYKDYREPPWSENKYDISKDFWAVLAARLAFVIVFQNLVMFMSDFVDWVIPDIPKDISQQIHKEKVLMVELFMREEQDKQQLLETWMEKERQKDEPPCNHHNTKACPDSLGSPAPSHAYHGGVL
In words: YFP fluorescence quenching assay for ANO1 activity in FRT-ANO1 cells. Format: cell-based. Conditions: ATP 100 μM, n = 4. The method, then:
Figure 2 Inhibitory effects of VI-101, VI-201 and VI-301 on VRAC and ANO1. (A–C) Representative YFP fluorescence traces for VRAC activity. LN215 cells were treated with the indicated concentrations of VI-101, VI-201 and VI-301 with hypotonic solution for 5 min. (D) Dose-response curve of VRAC inhibition (mean ± S.E., n = 4). (E–G) Representative YFP fluorescence traces for ANO1 activity. […]. (H) Dose-response curve of ANO1 inhibition (mean ± S.E., n = 4).
Human ANO1(abc) expressing Fisher rat thyroid (FRT) cells, ANO2 expressing FRT cells, and human CFTR expressing FRT cells were cultured as described in a previous study. LN215 cells were stably transfected with the halide sensor YFP-F46L/H148Q/I152 and NIH-3T3 cells cultured in DMEM were supplemented with 10% FBS, 2 mM L-glutamine, 100 units/mL penicillin, and 100 μg/mL streptomycin. HEK293T cells were stably transfected with the human Kv11.1 (hERG) and cultured in DMEM supplemented with 10% FBS, 2 mM L-glutamine, 100 units/mL penicillin, and 100 μg/mL streptomycin. PC3, HT29, and HeLa cells were stably transfected with the halide sensor YFP-F46L/H148Q/I152 and cultured in RPMI 1640 supplemented with 10% FBS, 2 mM L-glutamine, 100 units/mL penicillin, and 100 μg/mL streptomycin. […]

Assay [2] addresses T2, VRAC. Conditions: read-out: VRAC IC50; YFP fluorescence quenching, LN215 cells, hypotonic solution 5 min, n = 4.

T1 sequence (P13569 whole entry): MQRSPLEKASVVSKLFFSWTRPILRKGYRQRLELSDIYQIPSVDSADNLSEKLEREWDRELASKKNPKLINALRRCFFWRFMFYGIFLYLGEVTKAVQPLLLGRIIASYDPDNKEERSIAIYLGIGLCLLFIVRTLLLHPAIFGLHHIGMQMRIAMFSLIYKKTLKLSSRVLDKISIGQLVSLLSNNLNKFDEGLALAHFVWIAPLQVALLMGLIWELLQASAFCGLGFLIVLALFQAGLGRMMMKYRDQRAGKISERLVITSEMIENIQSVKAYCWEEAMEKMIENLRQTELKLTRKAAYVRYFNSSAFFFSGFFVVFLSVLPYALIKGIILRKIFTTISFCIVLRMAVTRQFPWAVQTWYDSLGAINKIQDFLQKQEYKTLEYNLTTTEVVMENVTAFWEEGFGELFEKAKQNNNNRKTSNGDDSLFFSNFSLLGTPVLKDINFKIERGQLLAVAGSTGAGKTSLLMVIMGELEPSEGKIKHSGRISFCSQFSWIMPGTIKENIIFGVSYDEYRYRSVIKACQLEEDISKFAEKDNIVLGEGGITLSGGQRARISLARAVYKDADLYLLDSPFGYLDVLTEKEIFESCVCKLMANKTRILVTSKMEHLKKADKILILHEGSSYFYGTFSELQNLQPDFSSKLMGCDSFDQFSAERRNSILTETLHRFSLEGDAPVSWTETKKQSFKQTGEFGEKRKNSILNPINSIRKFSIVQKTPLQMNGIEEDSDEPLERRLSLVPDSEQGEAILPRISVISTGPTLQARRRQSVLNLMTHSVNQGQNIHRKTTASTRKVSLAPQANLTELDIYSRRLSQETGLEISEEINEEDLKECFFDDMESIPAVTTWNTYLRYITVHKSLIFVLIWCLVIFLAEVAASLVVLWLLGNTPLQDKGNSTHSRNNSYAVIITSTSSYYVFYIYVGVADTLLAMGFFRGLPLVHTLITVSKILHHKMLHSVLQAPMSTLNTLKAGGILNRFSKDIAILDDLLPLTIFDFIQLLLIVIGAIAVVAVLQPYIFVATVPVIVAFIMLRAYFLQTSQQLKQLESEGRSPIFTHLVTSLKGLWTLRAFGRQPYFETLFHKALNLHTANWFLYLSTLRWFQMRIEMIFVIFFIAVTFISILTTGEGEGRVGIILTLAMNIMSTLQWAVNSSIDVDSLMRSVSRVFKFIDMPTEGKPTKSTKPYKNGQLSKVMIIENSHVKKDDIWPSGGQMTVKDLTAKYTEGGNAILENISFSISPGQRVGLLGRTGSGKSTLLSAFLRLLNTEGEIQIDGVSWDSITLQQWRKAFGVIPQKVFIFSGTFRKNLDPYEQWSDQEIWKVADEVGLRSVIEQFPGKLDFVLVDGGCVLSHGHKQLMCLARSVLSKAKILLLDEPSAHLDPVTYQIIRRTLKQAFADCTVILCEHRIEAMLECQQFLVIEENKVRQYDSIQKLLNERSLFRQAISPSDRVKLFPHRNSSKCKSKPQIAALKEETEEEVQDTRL

Turning to `O=C(O)c1ccc(/C=C2\SC(=S)N(c3cccc(C(F)(F)F)c3)C2=O)cc1` [CFTRinh−172], on human CFTR, the “block of CFTR” value is “completely blocked”.
In the case of `O=c1oc2ccccc2c(O)c1C(c1cc([N+](=O)[O-])ccc1Cl)c1c(O)c2ccccc2oc1=O` [VI-101], the IC50 came to 3.3 µM on VRAC [1] and 3.2 µM against ANO1.
As to `O=c1oc2ccccc2c(O)c1C(c1ccc(Cl)c([N+](=O)[O-])c1)c1c(O)c2ccccc2oc1=O` [VI-102], the figures for the IC50 against VRAC [1] and against ANO1 were 0.8 µM and 3 µM, respectively.
As to `O=c1oc2ccccc2c(O)c1C(c1cc([N+](=O)[O-])c(Cl)cc1Cl)c1c(O)c2ccccc2oc1=O` [VI-103], the IC50 at VRAC [1] came out at 3.3 µM; at ANO1 it was 3.2 µM.
With `O=c1oc2ccccc2c(O)c1C(c1cc([N+](=O)[O-])cc([N+](=O)[O-])c1Cl)c1c(O)c2ccccc2oc1=O` [VI-104], the IC50 against VRAC [1] amounted to 30 µM; on ANO1 it was 37.9 µM.
`O=c1oc2ccccc2c(O)c1C(c1cccc([N+](=O)[O-])c1)c1c(O)c2ccccc2oc1=O` [VI-105]: the concentration for half-maximal inhibition (IC50) at VRAC [1] amounted to 4.9 µM; against ANO1, 3.8 µM.
The corresponding values for `CN(C)c1ccc(C(c2c(O)c3ccccc3oc2=O)c2c(O)c3ccccc3oc2=O)cc1[N+](=O)[O-]` [VI-106] are 1.3 µM and 3.6 µM.
In the case of `O=c1oc2ccccc2c(O)c1C(c1ccccc1)c1c(O)c2ccccc2oc1=O` [VI-107], the 50% inhibitory concentration (IC50) on VRAC [2] was 103 µM; on ANO1 it was 95.2 µM.
Take `O=c1oc2ccccc2c(O)c1C(c1ccncc1)c1c(O)c2ccccc2oc1=O` [VI-108]: the IC50 is 17 µM on VRAC [1] and 34.7 µM at ANO1.
On to `O=c1oc2ccccc2c(O)c1C(c1ccccc1Cl)c1c(O)c2ccccc2oc1=O` [VI-109], for which the IC50 against VRAC [1] amounted to 0.9 µM; on ANO1, 2 µM.
Take `O=c1oc2ccccc2c(O)c1C(c1ccccc1F)c1c(O)c2ccccc2oc1=O` [VI-110]: the concentration for half-maximal inhibition (IC50) on VRAC [1] is 0.58 µM and 0.6 µM; at ANO1 it was 4.8 µM.
Regarding `CCN(CC)c1ccc(C(c2c(O)c3ccccc3oc2=O)c2c(O)c3ccccc3oc2=O)cc1` [VI-111], the half-maximal inhibitory concentration (IC50) is 2.9 µM on VRAC [1] and 3.2 µM against ANO1.
For the compound `CC(C)Oc1ccc(C(c2c(O)c3ccccc3oc2=O)c2c(O)c3ccccc3oc2=O)cc1` [VI-112], the half-inhibitory concentration (IC50) against VRAC [1] stood at 1.4 µM; against ANO1, 0.8 µM.
For `O=c1oc2ccccc2c(O)c1C(c1ccc2c(c1)OCO2)c1c(O)c2ccccc2oc1=O` [VI-113], the figures for the IC50 at VRAC [1] and against ANO1 were 1.9 µM and 3.9 µM, respectively.
In the case of `O=c1oc2ccccc2c(O)c1C(c1cc2c(cc1[N+](=O)[O-])OCO2)c1c(O)c2ccccc2oc1=O` [VI-114], the results for the 50% inhibitory concentration (IC50) against VRAC [1] and against ANO1 were 10.6 µM and 20.3 µM, respectively.
As for `O=c1oc2ccccc2c(O)c1C(c1ccc(O)c(O)c1)c1c(O)c2ccccc2oc1=O` [VI-115], the values for the IC50 on VRAC [1] and on ANO1 were 47.9 µM and 61.6 µM, respectively.
Take `CCOc1cc(C(c2c(O)c3ccccc3oc2=O)c2c(O)c3ccccc3oc2=O)ccc1O` [VI-117]: the concentration for half-maximal inhibition (IC50) against VRAC [1] came out at 6.8 µM; on ANO1 it was 14.2 µM.
For `COc1ccc(C(c2c(O)c3ccccc3oc2=O)c2c(O)c3ccccc3oc2=O)cc1OC` [VI-118], the half-inhibitory concentration (IC50) was determined as 4 µM against VRAC [1] and 14.2 µM against ANO1.
The corresponding values for `CCOc1ccc(C(c2c(O)c3ccccc3oc2=O)c2c(O)c3ccccc3oc2=O)cc1OC` [VI-119] are 12 µM and 4.9 µM.
On the same counts, the results for `COc1cc(OC)cc(C(c2c(O)c3ccccc3oc2=O)c2c(O)c3ccccc3oc2=O)c1` [VI-120] are 9.3 µM and 3.9 µM.

These data come from paper PMC9103758 (International Journal of Molecular Sciences, 2022).
